Test results: PubChem BioAssay (NCI)
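96-well plates; 48 h exposure; 5 concentrations. Endpoints by linear interpolation between flanking doses. Not reached: highest tested concentration assigned. Abbreviation: GI50, concentration required for 50% inhibition of growth. TGI: concentration producing complete growth inhibition.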

Experiments:
Assay in all cases: inhibition of tumour cell growth, NCI panel, 48 h
SK-OV-3 ovarian = test system: SK-OV-3 ovarian
CAKI-1 renal = test system: CAKI-1 renal
SF-268 CNS = test system: SF-268 CNS
RPMI-8226 leukemia = test system: RPMI-8226 leukemia
HCT-116 colon = test system: HCT-116 colon
LOX IMVI melanoma = test system: LOX IMVI melanoma
OVCAR-4 ovarian = test system: OVCAR-4 ovarian
SN12C renal = test system: SN12C renal
K-562 leukemia = test system: K-562 leukemia
HL-60(TB) leukemia = test system: HL-60(TB) leukemia

Row | Structure (SMILES) | TGI (SK-OV-3 ovarian) | TGI (CAKI-1 renal) | TGI (SF-268 CNS) | TGI (RPMI-8226 leukemia) | TGI (HCT-116 colon) | TGI (LOX IMVI melanoma) | TGI (OVCAR-4 ovarian) | TGI (SN12C renal) | TGI (K-562 leukemia) | TGI (HL-60(TB) leukemia) | GI50 (HCT-116 colon) | GI50 (SN12C renal)
1 | BrCC[N+]12CC[N+](CCBr)(CC1)C2 | > 100 µM | > 100 µM | > 100 µM | > 100 µM | > 100 µM | > 100 µM | > 100 µM | > 100 µM | > 100 µM | > 100 µM |  | 
2 | O=C(OCCNC(=O)N1CC1)OCCNC(=O)N1CC1 | > 10 µM | > 10 µM | > 10 µM | > 10 µM | > 10 µM | > 10 µM | > 10 µM | > 10 µM | > 10 µM | > 10 µM |  | 
3 | C=C1C[C@H](O)[C@H](Br)C(C)(C)C12CCC(C)(Cl)C(Br)C2 (some centres not stated) | 12.7 µM | 24.5 µM | 20.8 µM | 3.76 µM | 16.1 µM | 20.1 µM | 7.95 µM | 14.8 µM | 56.2 µM | 13.4 µM |  | 
4 | CCOc1cc2c(c(OCC)c1O)CC[C@@H]1[C@@H]2CC[C@]2(C)[C@@H](O)CC[C@@H]12 | 57.5 µM | 32.1 µM | 52.1 µM | 31.1 µM | 18.1 µM | 17.1 µM | > 100 µM | 21.9 µM | 23.7 µM | 1.86 µM | 0.801 µM | 4.84 µM
5 | COc1ccc(-c2c(C#N)c(S)n(NS(=O)(=O)c3ccccc3)c(=O)c2C#N)cc1 | > 100 µM | > 100 µM | > 100 µM | 98.4 µM | > 100 µM | > 100 µM | > 100 µM | > 100 µM | > 100 µM | > 100 µM |  | 
6 | ClCCCCCc1c2nc(c(CCCCCCl)c3ccc([nH]3)c(CCCCCCl)c3ccc([nH]3)c(CCCCCCl)c3nc1C=C3)C=C2 | > 100 µM | > 100 µM | > 100 µM | > 100 µM | > 100 µM | > 100 µM | > 100 µM | > 100 µM | > 100 µM | > 100 µM |  | 
7 | CCCCCCCCCCCCCCCCCCOCC(O)COP(=O)(O)OCC1OC(n2ccc(N)nc2=O)C(O)C1O (configuration not stated) | > 100 µM | 75 µM | 49.8 µM | 52.9 µM | > 100 µM | 31.1 µM | > 100 µM | > 100 µM | > 100 µM | 30.8 µM |  | 
8 | CCN1CN(c2ccccc2)C2(CCN(CC(CC3OCCO3)c3ccc(F)cc3)CC2)C1=O (configuration not stated) | > 73.3 µM | 22.5 µM | 38.2 µM | 60.2 µM | 11 µM | 35.1 µM | 36.3 µM | > 89.5 µM | > 87.6 µM | 49.3 µM |  | 
9 | O=C(N/N=C(/COc1ccccc1)N=Cc1cccnc1)c1ccncc1 | > 100 µM | > 100 µM | > 100 µM | > 100 µM | > 100 µM | > 100 µM | > 100 µM | > 100 µM | > 100 µM | > 100 µM |  | 
10 | CC(=O)Nc1cccc(N=NN(C)C)c1 | > 100 µM | > 100 µM | > 100 µM | > 100 µM | > 100 µM | > 100 µM | > 100 µM | > 100 µM | > 100 µM | > 100 µM |  | 
11 | O=C(c1ccccc1)N1C(=S)N(c2ccccn2)C(=Nc2ccccc2)C1=Nc1ccccc1 | > 86.6 µM | 43.8 µM | > 100 µM | 31.1 µM | > 77.3 µM | > 48.9 µM | 32.5 µM | > 100 µM | > 60.9 µM | 14.1 µM |  | 
12 | CC(=O)N(C(C)=O)c1cc2c3c(c1)CCCN3CCC2 | > 10 µM | > 10 µM | > 10 µM | > 10 µM | > 10 µM | > 10 µM | > 10 µM | > 10 µM | > 10 µM | > 10 µM |  | 
13 | CC(Cl)CC(=O)OCC1CCCN2CCCCC12 (configuration not stated) | > 100 µM | > 100 µM | > 100 µM | > 100 µM | > 100 µM | > 100 µM | > 100 µM | > 100 µM | > 100 µM | > 100 µM |  | 
14 | CNc1nc(C(N)=O)c(N)s1 | > 100 µM | > 100 µM | > 100 µM | > 100 µM | > 100 µM | > 100 µM | > 100 µM | > 100 µM | > 100 µM | > 100 µM |  | 
15 | CC1C(C#N)(C#N)C(C#N)=C(N)C1(Cl)[N+](=O)[O-] (configuration not stated) | 32.6 µM | 18.6 µM | 28.7 µM | 39.8 µM | 20.3 µM | 18.8 µM | 25.8 µM | 20.9 µM | > 100 µM | 5.16 µM |  | 
16 | O=CN1CCN(C(=O)c2ccc(Cl)c(Cl)c2)C1=S | 32.9 µM | 28.1 µM | 39.3 µM | 7.74 µM | 30.1 µM | 25.9 µM | 33.6 µM | 27.8 µM | > 100 µM | 45.7 µM |  | 
17 | CCOC(=O)c1c(NC(=S)Nc2ccccc2)sc2c1CCOC2 | > 100 µM | > 100 µM | > 100 µM | > 100 µM | > 100 µM | > 100 µM | > 100 µM | > 100 µM | > 100 µM | > 100 µM |  | 
18 | COc1ccc(/C=C2\C[C@H]3[C@@H]4CCC5=CC(=O)CC[C@]5(C)[C@H]4CC[C@]3(C)C2=O)cc1OC | > 100 µM | > 100 µM | > 100 µM | 47.3 µM | > 100 µM | > 100 µM | > 100 µM | > 100 µM | > 100 µM | 6.91 µM |  | 
19 | CN(C)c1ccc(C=C2C(=O)NC(=S)NC2=O)c2ccccc12 | > 100 µM | > 100 µM | 76.9 µM | > 100 µM | > 100 µM | 77 µM | > 100 µM | > 100 µM | > 100 µM | > 100 µM |  | 
20 | CCOC(=O)C(Cl)(NC(=O)OCc1ccccc1)C(F)(F)F (configuration not stated) | > 100 µM | > 100 µM | > 100 µM | > 100 µM | > 100 µM | > 100 µM | > 100 µM | > 100 µM | > 100 µM | > 100 µM |  | 
21 | CCOC(=O)NN(C(=O)OCC)c1c(C)cc(C)cc1C | > 100 µM | > 100 µM | > 100 µM | > 100 µM | > 100 µM | > 100 µM | > 100 µM | > 100 µM | > 100 µM | > 100 µM |  | 
22 | O=C(c1ccc(Cl)cc1)N(C(=S)OCCOc1ccccc1)c1ccccc1 | > 100 µM | 41.2 µM | 60.4 µM | 44.1 µM | 30.9 µM | 36.1 µM | 40.8 µM | 39.3 µM | > 100 µM | 38.6 µM |  | 
23 | N#Cc1c(O)c(/C=N/c2ncccn2)c(=O)n2c1[nH]c1ccccc12 | > 100 µM | > 100 µM | > 100 µM | > 100 µM | > 100 µM | > 100 µM | > 100 µM | > 100 µM | > 100 µM | > 100 µM |  | 
24 | CC(C)Oc1c(-c2ccc(F)cc2)c(O)c2c3c1oc(=O)n3C=CC2C (configuration not stated) | > 100 µM | 27.5 µM | 35.2 µM | 34.7 µM | 25.5 µM | 28.2 µM | 23.3 µM | 23.8 µM | 39.6 µM | 31 µM |  | 
25 | Fc1ccc(C(OCCN2CC3CCC(C2)N3CCCc2ccccc2)c2ccc(F)cc2)cc1 | 23.3 µM | 19.1 µM | 15.1 µM | 4.8 µM | 11.3 µM | 13 µM | 16.4 µM | 13.6 µM | 4.99 µM | 14.1 µM |  | 
26 | CC1(C)[C@@H]2C[C@H]1c1cnc(-c3ccccn3)cc1C2CCCCC[C@@H]1c2cc(-c3ccccn3)ncc2[C@@H]2C[C@H]1C2(C)C (some centres not stated) | > 100 µM | > 30.3 µM | > 100 µM | 19.6 µM | 31.3 µM | 19.3 µM | > 100 µM | > 44.9 µM | > 100 µM | 5.76 µM |  | 
27 | c1ccc2c(c1)OC(N1CCCC1)c1cnc(N3CCOCC3)nc1-2 (configuration not stated) | > 100 µM | > 100 µM | > 100 µM | 74.7 µM | > 100 µM | > 100 µM | > 100 µM | > 100 µM | > 100 µM | > 100 µM |  | 
28 | O=C1CC(NCc2ccccc2)c2c(Cl)sc(Cl)c21 (configuration not stated) | > 100 µM | 53 µM | 50.2 µM | 6.82 µM | 33.1 µM | 18.5 µM | > 87.3 µM | 58 µM | > 100 µM | 41.6 µM |  | 
